# According to US20230277550A1, “Methods for Treating Respiratory Diseases Characterized by Mucus Hypersecretion” (The Board of Trustees of the Leland Stanford Junior …, priority 2020, published 2023):
# Legend:
# [1] = system: Primary human airway epithelial cells; assay: MCC formation with a variety of GSIs at high and low concentrations; type: cell-based
# [2] = system: Mature (ALI+30d) primary human airway epithelial cells; assay: GSI treatment of mature (ALI+30d) cultures; type: cell-based; conditions: mature cultures treated one (ALI+30 to +37d) or two weeks (ALI+30 to +44d)
# Experimental: Mature (ALI+30d) primary human airway epithelial cells were treated with DAPT and semagacestat for one (ALI+30 to +37d) or two weeks (ALI+30 to +44d), then labeled with anti-acetylated α-Tubulin (green) and ECAD (red) antibodies.
# [3] = system: HNEC cultures from a CF patient; assay: IL-13 induced chronic inflammation model in ALI HNEC cultures; type: cell-based, human; conditions: DAPT 1 um, semagacestat 125 nm, days 14-21
# Experimental: Administration of IL-13 to ALI cultures induces goblet cell hyperplasia and is a useful model of chronic inflammation. ALI HNEC cultures were prepared as described in Vladar et al. ALI cultures were treated with and without administration of Il-13 on days 7-14. DAPT (1 um), semagacestat (125 nm) or vehicle control were administered on days 14-21. PFA-fixed cultures were stained for Muc5AC (red; mucin producing secretory cells), Acetylated tubulin (green; MCCs) and E-Cadherin (blue to reveal cell boundaries).
# HNEC cultures from a CF patient were treated with IL-13 from ALI+7 to 14 to induce inflammation. […] IL-13 treatment increases the percentage of mucin positive secretory cells and decreases the percentage of MCCs.
# [4] = system: Primary human airway epithelial cells; assay: GSI treatment from the apical or basal surface; type: cell-based; conditions: ALI+0 to +21d, apical or basal application
# Experimental: Primary human airway epithelial cells were treated with DAPT and LY45139 during differentiation only (ALI+0 to +21d) from either the apical or basal surface, then labeled at ALI+21d with anti-acetylated α-Tubulin (green) and ECAD (red) antibodies. […] Apical treatment eliminates the air-liquid interface, which results in the poor epithelial structure and multiciliated cell differentiation in the untreated cultures, which is partially rescued by GSI treatment.
# [5] = system: Primary healthy and cystic fibrosis airway epithelial cells; assay: MCC formation in cystic fibrosis epithelia; type: cell-based, human; conditions: CF patient-derived cultures, ALI+0 to +21d
# Experimental: Primary healthy and cystic fibrosis airway epithelial cells were treated with semagacestat (LY45139) during differentiation only (ALI+0 to +21d) and labeled at ALI+21d with anti-acetylated α-Tubulin (green) and ECAD (red) antibodies. […] Restoration of a healthy MCC/total cell ratio is expected to improve mucociliary clearance.
# [6] = In vivo mouse model, body weight as surrogate of GI toxicity, and mortality; conditions: 1 mg/kg IP, three weeks; days 9, 24 and 30
# Experimental: In the second experiment, vehicle and semagacestat were administered once daily for 5 consecutive days per week for three weeks, with a semagacestat dose of 1 mg/kg. An important observed toxicity in multiple GSI clinical trials, including large Alzheimer’s Disease trials, was gastrointestinal toxicity. As a surrogate measure of GI toxicity, we monitored body weight throughout the experiment.
# Body weight was measured on Days 1, 9, 24 and 30, and mice were sacrificed on day 31.
# [7] = system: primary human nasal epithelial cells (HNECs); assay: Semagacestat dose response on multiciliated cell (MCC) formation in HNEC ALI cultures; type: cell-based
# Experimental: Air-Liquid Interface (ALI) cultures were prepared as described in Vladar EK, Nayak JV, Milla CE, Axelrod JD. Airway epithelial homeostasis and planar cell polarity signaling depend on multiciliated cell differentiation. JCI Insight. 2016;1(13);e88027. Human nasal epithelial cells (HNECs) were generated from human sinonasal epithelial brushings or from tissue obtained from patients undergoing endoscopic sinus surgery at Stanford Hospital and cultured as described in Vladar et al.
# Cultures were treated with varying doses of semagacestat. DAPT (Abcam) was used ([…]) as a positive control for GSI activity. Cultures were labeled at ALI+21d with anti-acetylated α-tubulin (green) and ECAD (red) antibodies to mark cilia and epithelial junctions.
# The ratio was defined as MCC number/total luminal cells. Counting was done on one representative image from 5 culture replicates from a single donor.
# [8] = system: Primary nasal epithelial cells from two CF donors (F508del homozygote); assay: Airway surface liquid (ASL) reabsorption; type: cell-based, human; conditions: 30 µl PBS, weight change over time; p = <0.001 vs control
# Experimental: Primary nasal epithelial cells from two CF donors (F508del homozygote) were grown in filter inserts as in previous experiments to full differentiation. During differentiation they received treatment with vehicle control (blue), triple combination CFTR modulator (Elexcaftor/Tezacaftor/Ivacaftor; orange), the GSI semagacestat (LY-45139) (gray) or both treatments combined (yellow). Once they reached maturity, the apical surface was washed gently with PBS and then 30 µl of PBS were added to the surface. The filter inserts were then weighed on a precision scale at times 0, 12 and 24 hours after fluid addition. The change in weight over time was taken as a surrogate for fluid reabsorption.
# [9] = system: Primary human airway epithelial cells; assay: MCC formation by timing of GSI treatment (proliferation, differentiation, continuous); type: cell-based
# Experimental: Primary human airway epithelial cells were treated with DAPT and LY45139: i) during proliferation only (ALI-5 to -1d), ii) during differentiation only (ALI+0 to +21d) or iii) continuously during the entire culture duration, followed by labeling at ALI+21d with anti-acetylated α-Tubulin (green) and ECAD (red) antibodies.
# [10] = cited from earlier work
smiles,measurement,setting,value
"CC(C)[C@H](O)C(=O)N[C@@H](C)C(=O)N[C@@H]1C(=O)N(C)CCc2ccccc21 [semagacestat, (2S)-2-hydroxy-3-methyl-N-[(1S)-1-methyl-2-oxo-2-[[(1S)-2,3,4,5-tetrahydro-3-methyl-2-oxo-1H-3-benzazepin-1-yl]amino]ethyl]-butamide]",epithelial structure,"[1]; high concentrations, ALI+0 to +21d",disrupted epithelial structure
same,multiciliated cell formation,"[1]; low concentration, ALI+0 to +21d",induced multiciliated cell formation
same,Notch signaling and differentiation towards MCCs,"[1]; nanomolar range, human nasal epithelial cells","effective in blocking Notch signaling, driving differentiation towards MCCs"
same,formation of additional multiciliated cells,[2],induces the formation of additional multiciliated cells
same,percentage of MCCs,[3]; after IL-13 (ALI+7 to 14),increasing the percentage of MCCs
same,percentage of mucin positive secretory cells,[3]; after IL-13 (ALI+7 to 14),decreasing the percentage of mucin positive secretory cells
same,percentage of MCCs,[3]; controls without IL-13,increase the percentage off MCCs
same,ciliated cell formation,[4],induces ciliated cell formation via both apical and basal application
same,MCC/total cell ratio,[5],effective in increasing MCC/total cell ratio
same,body weight vs vehicle controls,[6],no significant difference
same,semagacestat concentration at which the percentage of MCCs is at its baseline,"[7]; HNECs, FIG. 1 dose response",15.625 nM
same,semagacestat concentration at which the percentage of MCCs reaches its maximum,"[7]; HNECs, FIG. 1 dose response",around 125 nM
same,Toxicity,"[7]; HNECs, micromolar doses",Toxicity is observed at micromolar doses
same,conversion to MCCs,"[7]; nanomolar concentrations, labeled at ALI+21d",effective conversion to MCCs
same,ratio MCC number/total luminal cells,"[7]; semagacestat doses from 500 nM to 31.25 nM, p <0.01 by ANOVA with Dunnett's test",significant increases
same,ASL (fluid) reabsorption vs control,[8],significantly decreased reabsorption
same,MCC cell numbers,"[9]; treatment during differentiation (differentiation only ALI+0 to +21d, and continuous)",increased MCC cell numbers
same,effect on differentiation,[9]; treatment during proliferation only (ALI-5 to -1d),had no effect on differentiation
same,adverse events,[10]; 100 mg and 140 mg daily,"more adverse events, including skin cancers and infections"
same,cognitive status,[10]; 100 mg and 140 mg daily,did not improve cognitive status
same,cognitive ability,[10]; patients on the highest dose,significant worsening of cognitive ability
